In one series the target is T1, p38 MAP kinase (Mus musculus, UniProt P47811).
T1 construct: a fusion protein comprising full length murine p38 MAP kinase and a His tag; host or cells: E. coli
Briefly: p38 MAP Kinase Assay (phosphorylation of GST-ATF-2, ELISA detection). The class given is biochemical, murine. Conditions: His-p38 MAP kinase, GST-ATF-2 substrate, ATP 120 μM, 1 h at 37° C.; read-out: IC50 for p38 MAP kinase inhibition. How it is done:
The substrate (GST-ATF-2; a fusion protein comprising amino acids 1-109 of ATF-2 and the GST protein obtained by expression in E. coli) is coated onto the webs of microtiter plates (50 μl/well; 1 μg/ml in PBS/0.02% Na azide) overnight at 4° C. The following day, the microtiter plates are washed four times with PBS/0.5% Tween 20/0.02% Na azide and are blocked with PBS/2% BSA/0.02% Na Azide for 1 h at 37° C. Plates are washed again 4 times with PBS/0.5% Tween 20/0.02% Na azide. The kinase cascade reaction is then started by adding the following reactants in 10 μl aliquots to a final reaction volume of 50 μl.
1. Agents of the Invention titrated from 10 to 0.001 μM in 10-fold dilutions or solvent (DMSO) or H2O.
2. Kinase buffer (5×); pH 7.4; 125 mM Hepes (Stock at 1M; Gibco #15630-056), 125 mM β-glycerophosphate (Sigma #G-6251):125 mM MgCl2 (Merck #5833); 0.5 mM Sodium orthovanadate (Sigma #5-6508), 10 mM DTT (Boehringer Mannheim #708992). The (5×) kinase buffer must be prepared fresh the day of the assay from 5× stock solutions kept at RT. DTT is kept at −20° C. and is added as the last reagent.
3. His-p38 MAP kinase (10 ng/well; Novartis—a fusion protein comprising full length murine p38 MAP kinase and a His tag, obtained by expression in E. coli)
4. cold ATP (final concentration 120 μM; Sigma #A-9187)
After 1 h at 37° C. the kinase reaction is terminated by washing the plates four times as previously described. Phosphorylated GST-ATF-2 is then detected by adding:
1. the PhosphoPlus ATF-2 (Thr71) Antibody (50 μl/well; 1/1000 final dilution in PBS/2% BSA/0.02% Na Azide; New England Biolabs #9221L) for 90 min at RT.
2. Biotin labelled goat-anti-rabbit IgG (50 μl/well; 1/3000 final dilution in PBS/2% BSA/0.02% Na Azide; Sigma #B-9642) for 90 min at RT.
3. Streptavidin-alkaline phosphatase (50 μl/well; 1/5000 dilution in PBS/2% BSA/0.02% Na Azide; Jackson Immunoresearch #016-050-84) for 30 min at RT.
4. Substrate (100 μl/well; Sigma 104 Phosphatase substrate tablets, 5 mg/tablet; #104-105; 1 mg/ml in substrate buffer, Diethanolamine (97 ml/l; Merck #803116)+MgCl2.6H2O (100 mg/l; Merck #5833)+Na Azide (0.2 g/l)+HCl 1M to pH 9.8) 30 min at RT.
After step 1, 2 and 3 the microtiter plates are washed four times with PBS/0.5% Tween 20/0.02% Na azide. After step 4, the plates are read in a Bio-Rad microplate reader in a dual wavelength mode (measurement filter […] and reference filter […]). The background value (without ATP) is subtracted and IC50 values are calculated using the Origin computer program (4 parameter logistic function).

The subject of series [1] is TNF-α release from hPBMCs. Briefly: Assay for Inhibition of TNF-α Release from hPBMCs (IFNg/LPS stimulated, ELISA). It counts as cell-based. The conditions noted are these: Homo sapiens, 3 h, IFNg (100 U/ml) and LPS, three hours, TNF-α in supernatant by ELISA, read-out: IC50 for suppression of TNF release. How it is done:
Assay for Inhibition of TNF-α Release from hPBMCs
Human peripheral blood mononuclear cells (hPBMCs) are prepared from the peripheral blood of healthy volunteers using ficoll-hypaque density separation according to the method of Hansell et al., J. Imm. Methods (1991) 145: 105. and used at a concentration of 10^5 cells/well in RPMI 1640 plus 10% FCS. Cells are incubated with serial dilutions of the test compounds for 30 minutes at 37° C. prior to the addition of IFNg (100 U/ml) and LPS ([…]) and subsequently further incubated for three hours. Incubation is […] by centrifugation at 1400 RPM for 10 min. TNF-α in the supernatant is measured using a commercial ELISA (Innotest hTNFa, available from Innogenetics N.V., Zwijnaarde, Belgium). Agents of the Invention are tested at concentrations of from […]. Exemplified Agents of the Invention typical suppress TNF release in this assay with an IC50 of from about 500 nM to about 10 nM or less when tested in this assay.
On the technique in general: In an ELISA, binding on a coated surface is turned into a signal by an enzyme label.

The structures appear in SMILES notation. Where a name gives a salt, the structure may show the parent alone.

T1 sequence (P47811 whole entry, the tested form may be a part): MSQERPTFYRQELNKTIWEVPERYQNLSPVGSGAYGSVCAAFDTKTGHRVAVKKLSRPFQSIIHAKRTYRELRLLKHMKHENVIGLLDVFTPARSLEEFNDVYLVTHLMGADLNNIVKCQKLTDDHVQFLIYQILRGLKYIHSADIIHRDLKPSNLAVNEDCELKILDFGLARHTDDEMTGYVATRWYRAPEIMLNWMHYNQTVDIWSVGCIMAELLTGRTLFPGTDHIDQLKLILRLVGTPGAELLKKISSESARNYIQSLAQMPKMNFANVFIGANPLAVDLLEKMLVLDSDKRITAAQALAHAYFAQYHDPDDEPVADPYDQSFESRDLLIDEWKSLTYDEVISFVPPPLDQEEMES

One may read the IC50 as the concentration that gives 50% inhibition. With `C[C@H](Nc1nccc(-n2cc(C3CCNCC3)nc2-c2ccc(F)cc2)n1)c1ccccc1` [Example 52], the IC50 (on p38 MAP kinase; in series [1]) was 1 to 10 nM throughout. As to `CC(C)(O)CN1CCC(c2nc(-c3ccc(F)cc3)c(-c3ccnc(NCC4CC4)c3)o2)CC1` [Example 20, 4-(4-Fluorophenyl)-2-(4-N-(2-hydroxy-2-methyl)propylpiperidine-1-yl)-5-(2-cyclopropylmethylamino-4-pyridyl)oxazole], the IC50 in series [1] is 1 to 10 nM.

Take `CN1CCC(O)(c2nc(-c3ccc(F)cc3)c(-c3ccnc(NCC4CC4)c3)o2)CC1` [Example 15]: the IC50 on p38 MAP kinase was in the range of 1 to 10 nM. Take `C[C@H](Nc1nccc(-n2cc([C@]3(O)C[C@H]4CC[C@@H](C3)N4)nc2-c2ccc(F)cc2)n1)c1ccccc1` [Example 60, 2-(4-Fluorophenyl)-1-(2-(1-(S)-phenylethyl)amino-4-pyrimidyl)-4-(3a-hydroxy-nortropan-3b-yl)imidazole]: the IC50 in series [1] is 1 to 10 nM. Same read-out and setting: next, `C[C@H](Nc1nccc(-c2oc(C3CCNCC3)nc2-c2ccc(F)cc2)n1)c1ccccc1` [Example 8, 4-(4-Fluorophenyl)-5-(2-[1-(S)-phenylethyl]amino-4-pyrimidyl)-2-(4-NH-piperidine-1-yl)oxazole]: 1 to 10 nM. For `Fc1ccc(-c2nc(C3CCNCC3)oc2-c2ccnc(NCC3CC3)n2)cc1` [Example 9, 4-(4-Fluorophenyl)-5-(2-cyclopropylmethylamino-4-pyrimidyl)-2-(4-NH-piperidin-1-yl)oxazole], the IC50 (on p38 MAP kinase; in series [1]) was 1 to 10 nM throughout. Consider `C[C@H](Nc1nccc(-n2cc(-c3ccncc3)nc2-c2ccc(F)cc2)n1)c1ccccc1` [Example 35, 2-(4-Fluorophenyl)-1-(2-[1-(S)-phenyl-ethyl]amino-4-pyrimidyl) 4-(4-pyridyl)imidazole], for which the IC50 (at p38 MAP kinase; in series [1]) was 1 to 10 nM throughout. In the case of `C[C@H](Nc1cc(-c2oc(C3(O)CCN(C)CC3)nc2-c2ccc(F)cc2)ccn1)c1ccccc1` [Example 14], the IC50 on p38 MAP kinase was in the range of 1 to 10 nM. Consider `CN1CCC(O)(c2cn(-c3ccnc(NC4CCCCC4)n3)c(-c3ccc(F)cc3)n2)CC1` [Example 31], for which the IC50 in series [1] was in the range of 1 to 10 nM.

For `CC(C)(O)CN1CCC(c2nc(-c3ccc(F)cc3)c(-c3ccnc(NC4CCCCC4)c3)o2)CC1` [Example 23, 4-(4-Fluorophenyl)-2-(4-N-(2-hydroxy-2-methyl)propylpiperidine-1-yl)-5-(2-cyclohexylamino-4-pyridyl)oxazole], the IC50 in series [1] was in the range of 1 to 10 nM.

Take `C[C@H](Nc1nccc(-n2cc([C@]3(O)C[C@H]4CC[C@@H](C3)N4C(=O)OC(C)(C)C)nc2-c2ccc(F)cc2)n1)c1ccccc1` [Example 59, 2-(4-Fluorophenyl)-1-(2-(1-(S)-phenylethyl)amino-4-pyrimidyl)-4-(3a-hydroxy-N-tert.butyloxycarbonylnortropan-3b-yl)imidazole]: in series [1], the IC50 was in the range of 1 to 10 nM. Turning to `C[C@H](Nc1nccc(-n2cc(C3CCN(CC(C)(C)O)CC3)nc2-c2ccc(F)cc2)n1)c1ccccc1` [Example 54], in series [1], the IC50 fell in the range of 1 to 10 nM.

In the case of `CN1CCC(O)(c2cn(-c3ccnc(NC4CCCC4)n3)c(-c3cccc(C(F)(F)F)c3)n2)CC1` [Example 33, 2-(3-Trifluoromethylphenyl)-4-(1-methyl-4-hydroxypiperidin-4-yl)-1-(2-cyclopentylamino-4-pyrimidyl)imidazole], the IC50 in series [1] was 1 to 10 nM. For `C[C@H](Nc1nccc(-n2cc(-c3cccc(Cl)c3)nc2-c2ccc(F)cc2)n1)c1ccccc1` [Example 49, 2-(4-Fluorophenyl)-1-(2-[1-(S)-phenyl-ethyl]amino-4-pyrimidyl)-4-(3-chlorophenyl)imidazole], the IC50 (on p38 MAP kinase; in series [1]) was 1 to 10 nM each time. Turning to `C[C@H](Nc1nccc(-n2cc(C3CCN(C=O)CC3)nc2-c2ccc(F)cc2)n1)c1ccccc1` [Example 53, 2-(4-Fluorophenyl)-1-(2-(1-(S)-phenylethyl)amino-4-pyrimidyl)-4-(4-formyl)-piperidine-1-yl Imidazole], the IC50 in series [1] fell in the range of 1 to 10 nM. As for `CCOC(=O)N1CCC(c2cn(-c3ccnc(N[C@@H](C)c4ccccc4)n3)c(-c3ccc(F)cc3)n2)CC1` [Example 51, 2-(4-Fluorophenyl)-1-(2-(1-(S)-phenylethyl)amino-4-pyrimidyl)-4-(4-ethoxycarbonyl)piperidine-1-yl Imidazole], the IC50 (on p38 MAP kinase; in series [1]) was 1 to 10 nM in each case. Consider `CN1CCC(O)(c2cn(-c3ccnc(NC4CC4)n3)c(-c3cccc(C(F)(F)F)c3)n2)CC1` [Example 32, 2-(3-Trifluoromethylphenyl)-4-(1-methyl-4-hydroxypiperidin-4-yl)-1-(2-cyclopropylamino-4-pyrimidyl)imidazole], for which the IC50 in series [1] lay within 1 to 10 nM. Turning to `C[C@H](Nc1nccc(-n2cc(/C=N/NC(=N)N)nc2-c2ccc(F)cc2)n1)c1ccccc1` [Example 50, 2-(4-Fluorophenyl)-1-(2-[1-(S)-phenyl-ethyl]amino-4-pyrimidyl)-4-methyleneaminoguanidinyl-imidazole], the IC50 in series [1] was 1 to 10 nM. On to `C[C@H](Nc1nccc(-n2cc(C3CCN(C)CC3)nc2-c2ccc(F)cc2)n1)c1ccccc1` [Example 56, 2-(4-Fluorophenyl)-1-(2-(1-(S)-phenylethyl)amino-4-pyrimidyl)-4-(4-methyl)-piperidine-1-yl Imidazole], for which the IC50 in series [1] was 1 to 10 nM.

For `C[C@H](Nc1nccc(-c2oc(C3CCN(C)CC3)nc2-c2ccc(F)cc2)n1)c1ccccc1` [Example 4], the 50% inhibitory concentration (IC50) in series [1] lay within 1 to 10 nM. The same measure, in the same setting: the same measure for `CC(C)(O)CN1CCC(c2cn(-c3ccnc(NC4CCCC4)n3)c(-c3ccc(F)cc3)n2)CC1` [Example 55]: 1 to 10 nM. By melting point is commonly meant the temperature of the solid-liquid transition. `CN1CCC(O)(c2cn(-c3ccnc(NC4CCCC4)n3)c(-c3cccc(C(F)(F)F)c3)n2)CC1` (as salt: fumarate) [Example 33, 2-(3-Trifluoromethylphenyl)-4-(1-methyl-4-hydroxypiperidin-4-yl)-1-(2-cyclopentylamino-4-pyrimidyl)imidazole] showed a melting point of 189 to 193 °C. With `Fc1ccc(-c2nc(C3CCNCC3)oc2-c2ccnc(NCC3CC3)c2)cc1` [Example 19, 4-(4-Fluorophenyl)-2-(4-NH-piperidine-1-yl)-5-(2-cyclopropylmethylamino-4-pyridyl)oxazole], the IC50 in series [1] lay within 1 to 10 nM.

For the origin of these results see patent publication US6579874B2, “Substituted azoles” (Novartis AG, priority 1999, dated 2003).
